Assay results from patent publication US9580411B2, “Substituted sulfonamide compounds” (Hoffmann-La Roche Inc., priority 2012, dated 2017).
pIC50: −log10 of the molar value.

Biological target: hTRPA1 (Homo sapiens (Human), UniProt O75762)
Assay: Dose response calcium flux assay (FLIPR), ChanTest hTRPA1-CHO stably transfected cell line
Type: cell-based
Details: CHO-K1 Tet-On human TRPA1 cells, cinnamaldehyde agonist (final 100 uM)
Protocol: IC50 Determinations of Exemplified Compounds Dose Response Assay: Chan Test hTRPA1-CHO Stably Transfected Cell Line
CHO-K1 Tet-On_HOMSA_TRPA1_Clone_20
Chinese Hamster Ovary cells, inducible expression
• Ham's F-12 with 10% tetracycline-free FBS • 1× penicillin-streptomycin • 1× glutamax • 0.01 mg/ml Blasticidin • 0.40 mg/ml Zeocin • The cell line doubling rate was ˜15 hours. […] Experiments were run at 24 hours post induction. Plating Conditions CHOK1/TRPA1 Cells: • Harvested cells with 0.025% trypsin/EDTA. • Resuspended cells in growth media without selection antibiotics. • Measured cell density and diluted to 2.4×10^5 cells/ml in media containing 1 ug/ml Doxycycline Plate 25 ul/well into 384 well black/clear tissue culture-treated plates. • Incubated overnight at 37° C. Calcium Flux Assay: Day of Assay: Reagents: • Replacement Buffer: Hank's Balanced Salt Solution, 20 mM HEPES along with 0.005% BSA and 2× Probenecid • Dye Loading Buffer: Cal-3 NW Calcium dye was prepared by dissolving the contents of one vial with […] Hank's Balanced Salt Solution containing 20 mM HEPES. • Control compounds for CHOK1/TRPA1 cells: AP-18, stock 10 mM, prepare 3.5× compound dilution in a Compound Buffer (HBSS/20 mM HEPES/0.005% BSA)—final concentration 10 uM. • Preparation of Cinnamaldehyde (agonist addition): FW=132.16 • Specific gravity=1.046 gm/cc • 1.32 gm/1.046 gm/cc=1.26 ml of stock • Add 1.74 ml DMSO=3.3 M stock • Working solution 4.5× (final 100 uM in Compound Buffer: HBSS/20 mM HEPES/0.005% BSA) • Compounds dilutions were prepared from 5 or 10 mM stock (100% DMSO): • Adjustments of volumes and concentrations were made at time of titration to reflect desired final assay concentrations. • Compounds were tested at either 20 μM three folds dilution 11 steps out or 30 μM two folds dilution 11 steps out. • 3 μl of diluted compound were transferred into Weidmann 384-well plate in duplicates side-by-side. • Compound plates were resuspended with 100 ul of HBSS/20 mM HEPES/0.005% BSA buffer (Compound Buffer): • column 1A-H: buffer/DMSO (bk) • column 2A-H: AP-18 (control antagonist for CHOK1 TRPA1 cells) • column 1I-P: ATP (control for CHOK1 teton cells) • column 2 I-P: 2APB (control antagonist for CHOK1/TRPM8 cells). Growth media was removed from the cell plates (20 ul) and 20 ul of the Replacement Buffer was added followed by addition of 25 ul of diluted dye. All three steps were performed using a Plate Washer BioTek 407. The plates were then incubated for 30′ at RT.
After incubation, both the cell and compound plates were brought to the FLIPR and 20 ul of the diluted compounds/antagonist/bk were transferred to the cell plates by the FLIPR. Plates were then incubated for 30′ at room temperature. After 30′ incubation, plates were returned to the FLIPR and 20 ul of 4.5× Cinnamaldehyde was added to the cell plates. During the compound addition as well as agonist addition, fluorescence readings were taken simultaneously from all 384 wells of the cell plate every 1.5 seconds. Five readings were taken to establish a stable baseline, then 20 ul of sample was rapidly (30 ul/sec) and simultaneously added to each well of the cell plate. The fluorescence was continuously monitored before, during and after sample/agonist addition for a total elapsed time of 100 seconds (compound addition) and 120 seconds (agonist addition). Responses (increase in peak fluorescence) in each well following agonist addition was determined. The initial fluorescence reading from each well, prior to ligand stimulation, was used a zero baseline value for the data from that well.

Sequence of hTRPA1 (O75762 whole entry): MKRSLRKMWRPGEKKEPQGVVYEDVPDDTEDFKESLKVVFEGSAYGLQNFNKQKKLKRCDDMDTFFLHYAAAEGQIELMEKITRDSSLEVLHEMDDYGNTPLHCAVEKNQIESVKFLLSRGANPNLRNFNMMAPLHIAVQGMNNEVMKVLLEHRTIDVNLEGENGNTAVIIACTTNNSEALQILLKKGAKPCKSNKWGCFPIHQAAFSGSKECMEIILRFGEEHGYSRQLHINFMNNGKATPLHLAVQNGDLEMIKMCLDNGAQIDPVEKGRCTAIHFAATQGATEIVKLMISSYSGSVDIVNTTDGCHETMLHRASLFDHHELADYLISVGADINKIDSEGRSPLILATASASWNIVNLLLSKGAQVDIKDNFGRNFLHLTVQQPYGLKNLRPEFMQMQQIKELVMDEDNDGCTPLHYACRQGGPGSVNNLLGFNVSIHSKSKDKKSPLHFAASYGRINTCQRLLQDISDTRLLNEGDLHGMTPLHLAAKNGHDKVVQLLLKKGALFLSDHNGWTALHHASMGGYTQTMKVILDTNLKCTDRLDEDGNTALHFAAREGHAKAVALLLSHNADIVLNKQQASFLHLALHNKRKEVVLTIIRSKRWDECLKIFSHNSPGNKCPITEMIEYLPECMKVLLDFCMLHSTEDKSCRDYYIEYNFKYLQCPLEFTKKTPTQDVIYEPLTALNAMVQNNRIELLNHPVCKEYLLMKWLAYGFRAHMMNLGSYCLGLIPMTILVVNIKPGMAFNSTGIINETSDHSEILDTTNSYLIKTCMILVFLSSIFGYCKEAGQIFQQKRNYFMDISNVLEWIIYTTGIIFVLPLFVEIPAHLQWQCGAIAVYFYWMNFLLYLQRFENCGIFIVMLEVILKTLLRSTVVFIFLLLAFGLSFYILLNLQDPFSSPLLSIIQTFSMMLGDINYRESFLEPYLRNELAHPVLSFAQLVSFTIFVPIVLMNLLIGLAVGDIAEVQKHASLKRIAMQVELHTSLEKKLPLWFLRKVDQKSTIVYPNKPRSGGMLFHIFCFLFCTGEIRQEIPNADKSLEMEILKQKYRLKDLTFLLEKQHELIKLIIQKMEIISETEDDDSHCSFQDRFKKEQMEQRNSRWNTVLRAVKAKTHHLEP

| SMILES | pIC50 |
| --- | --- |
| O=C(CN(CCO)S(=O)(=O)c1ccc(F)cc1)NCc1cc(-c2ccc(C(F)(F)F)cc2)ncn1 [Example 30, 2-[(4-fluoro-benzenesulfonyl)-(2-hydroxy-ethyl)-amino]-N-[6-(4-trifluoromethyl-phenyl)-pyrimidin-4-ylmethyl]acetamide] | 6.66 |
| CCN(CC(=O)NCc1ccc(OC)c(-c2ccc(C(F)(F)F)cc2)c1)S(=O)(=O)c1ccc(F)cc1 [Example 46, 2-[Ethyl-(4-fluoro-benzenesulfonyl)-amino]-N-(6-methoxy-4′-trifluoromethyl-biphenyl-3-ylmethyl)-acetamide] | 6.89 |
| CC(C)N(CC(=O)NCc1cccc(-c2ccc(C(F)(F)F)cn2)c1)S(=O)(=O)c1cccc(F)c1 [Example 50, 2-[(3-Fluoro-benzenesulfonyl)-isopropyl-amino]-N-[3-(5-trifluoromethyl-pyridin-2-yl)-benzyl]-acetamide] | 7.10 |
| CC(C)N([C@@H](C)C(=O)NCc1cc(-c2ccc(C(F)(F)F)cc2)ncn1)S(=O)(=O)c1ccc(F)cc1 [Example 32, (S)-2-[(4-Fluoro-benzenesulfonyl)-isopropyl-amino]-N-[6-(4-trifluoromethyl-phenyl)-pyrimidin-4-ylmethyl]-propionamide] | 6.72 |
| CC(C)N(CC(=O)NCc1cc(-c2ccc(C(F)(F)F)cc2)ncn1)S(=O)(=O)c1ccc(Cl)nc1 [Example 64, 2-[(6-Chloro-pyridine-3-sulfonyl)-isopropyl-amino]-N-[6-(4-trifluoromethyl-phenyl)-pyrimidin-4-ylmethyl]-acetamide] | 7.08 |
| O=C(CN(CC(F)(F)F)S(=O)(=O)c1ccc(F)cc1)NCc1cccc(-c2ccc(C(F)(F)F)cc2)c1 [Example 13, 2-[(4-fluoro-benzenesulfonyl)-(2,2,2-trifluoro-ethyl)-amino]-N-(4′-trifluoromethyl-biphenyl-3-ylmethyl)-acetamide] | 6.59 |
| CCN(CC(=O)NCc1ccc(F)c(-c2ccc(C(F)(F)F)cc2)c1)S(=O)(=O)c1ccc(F)cc1 [Example 14, 2-[Ethyl-(4-fluoro-benzenesulfonyl)-amino]-N-(6-fluoro-4′-trifluoromethyl-biphenyl-3-ylmethyl)-acetamide] | 7.43 |
| CC(C)N(CC(=O)NCc1ccnc(-c2cnc(C(F)(F)F)nc2)c1)S(=O)(=O)c1ccc(F)cc1 [Example 74, 2-[(4-Fluoro-benzenesulfonyl)-isopropyl-amino]-N-[2-(2-trifluoromethyl-pyrimidin-5-yl)-pyridin-4-ylmethyl]-acetamide] | 6.53 |
| CN(CC(=O)NCc1cc(-c2ccc(C(F)(F)F)cc2)ccc1F)S(=O)(=O)c1ccc(F)cc1 [Example 12, 2-[(4-Fluoro-benzenesulfonyl)-methyl-amino]-N-(4-fluoro-4′-trifluoromethyl-biphenyl-3-ylmethyl)-acetamide] | 7.32 |
| CC(C)N(CC(=O)NCc1cc(-c2ccc(C(F)(F)F)nc2)ncn1)S(=O)(=O)c1ccc(F)cc1 [Example 61, 2-[(4-Fluoro-benzenesulfonyl)-isopropyl-amino]-N-[6-(6-trifluoromethyl-pyridin-3-yl)-pyrimidin-4-ylmethyl]-acetamide] | 6.85 |
| CCN(CC(=O)NCc1ccc(-c2cccc(C(F)(F)F)c2)cc1)S(=O)(=O)c1ccc(F)cc1 [Example 18, 2-[Ethyl-(4-fluoro-benzenesulfonyl)-amino]-N-(3′-trifluoromethyl-biphenyl-4-ylmethyl)-acetamide] | 5.32 |
| O=C(CN(C1COC1)S(=O)(=O)c1ccc(F)cc1)NCc1cccc(-c2ccc(C(F)(F)F)cc2)c1 [Example 60, 2-[(4-Fluoro-benzenesulfonyl)-oxetan-3-yl-amino]-N-(4′-trifluoromethyl-biphenyl-3-ylmethyl)-acetamide] | 6.70 |
| CC(C)N(CC(=O)NCc1cc(-c2ccc(C(F)(F)F)cc2)ncn1)S(=O)(=O)c1cnccn1 [Example 67, 2-[Isopropyl-(pyrazine-2-sulfonyl)-amino]-N-[6-(4-trifluoromethyl-phenyl)-pyrimidin-4-ylmethyl]-acetamide] | 6.42 |
| CN(CC(=O)NCc1cccc(-c2ccc(C(F)(F)F)cc2)c1F)S(=O)(=O)c1ccc(F)cc1 [Example 9, 2-[(4-Fluoro-benzenesulfonyl)-methyl-amino]-N-(2-fluoro-4′-trifluoromethyl-biphenyl-3-ylmethyl)-acetamide] | 5.82 |
| CN(CC(=O)NCc1cccc(-c2ccc(C(F)(F)F)cn2)c1)S(=O)(=O)c1ccc(F)cc1 [Example 41, 2-[(4-Fluoro-benzenesulfonyl)-methyl-amino]-N-[3-(5-trifluoromethyl-pyridin-2-yl)-benzyl]-acetamide] | 6.54 |
| CC(C)N(CC(=O)NCc1cc(-c2ccc(C(F)(F)F)cc2)ncn1)S(=O)(=O)c1ccc(Cl)s1 [Example 75, 2-[(5-Chloro-thiophene-2-sulfonyl)-isopropyl-amino]-N-[6-(4-trifluoromethyl-phenyl)-pyrimidin-4-ylmethyl]-acetamide] | 7.60 |
| CC(C)N(CC(=O)NCc1cc(-c2ccc(C(F)(F)F)cc2)ncn1)S(=O)(=O)c1cccnc1 [Example 56, 2-[Isopropyl-(pyridine-3-sulfonyl)-amino]-N-[6-(4-trifluoromethyl-phenyl)-pyrimidin-4-ylmethyl]-acetamide] | 6.26 |
| CC(C)N(CC(=O)NCc1cccc(-c2ccc(C(F)(F)F)nn2)c1)S(=O)(=O)c1ccc(Cl)nc1 [Example 73, 2-[(6-Chloro-pyridine-3-sulfonyl)-isopropyl-amino]-N-[3-(6-trifluoromethyl-pyridazin-3-yl)-benzyl]-acetamide] | 6.17 |
| CC(C)N(CC(=O)NCc1cc(F)cc(-c2ccc(C(F)(F)F)cc2)c1)S(=O)(=O)c1ccc(F)cc1 [Example 36, 2-[(4-Fluoro-benzenesulfonyl)-isopropyl-amino]-N-(5-fluoro-4′-trifluoromethyl-biphenyl-3-ylmethyl)-acetamide] | 7.92 |
| CC(C)N(CC(=O)NCc1ccc(F)c(-c2cnc(C(F)(F)F)nc2)c1)S(=O)(=O)c1ccc(F)cc1 [Example 70, 2-[(4-Fluoro-benzenesulfonyl)-isopropyl-amino]-N-[4-fluoro-3-(2-trifluoromethyl-pyrimidin-5-yl)-benzyl]-acetamide] | 7.32 |
| C[C@H](C(=O)NCc1cccc(-c2ccc(C(F)(F)F)cc2)c1)N(C)S(=O)(=O)c1ccc(F)cc1 [Example 4, (R)-2-[(4-Fluoro-benzenesulfonyl)-methyl-amino]-N-(4′-trifluoromethyl-biphenyl-3-ylmethyl)-propionamide] | 5.95 |
| C[C@@H](C(=O)NCc1cccc(-c2ccc(C(F)(F)F)cc2)c1)N(C)S(=O)(=O)c1ccc(F)cc1 [Example 2, (S)-2-[(4-Fluoro-benzenesulfonyl)-methyl-amino]-N-(4′-trifluoromethyl-biphenyl-3-ylmethyl)-propionamide] | 7.46 |
| CC(C)N(CC(=O)NCc1cccc(-c2cnc(C(F)(F)F)cn2)c1)S(=O)(=O)c1ccc(F)cc1 [Example 71, 2-[(4-Fluoro-benzenesulfonyl)-isopropyl-amino]-N-[3-(5-trifluoromethyl-pyrazin-2-yl)-benzyl]-acetamide] | 7.10 |
| COc1cc(CNC(=O)CN(C(C)C)S(=O)(=O)c2ccc(F)cc2)cc(-c2ccc(C(F)(F)F)cc2)c1 [Example 45, 2-[(4-Fluoro-benzenesulfonyl)-isopropyl-amino]-N-(5-methoxy-4′-trifluoromethyl-biphenyl-3-ylmethyl)-acetamide] | 7.32 |
